{
  "source": "patent US20240016834A1",
  "about": "“ANTIMICROBIAL AGENT COMPOSITION AND MANUFACTURING METHOD AND PRODUCT THEREOF” (priority 2020, published 2024)",
  "key": {"[1]": {"tested_on": "Escherichia coli (E. coli) ATCC 8739", "test": "In vitro antibacterial power test (KFDA guidelines for external disinfectants), 5 minutes contact", "type": "cell-based", "conditions": "inoculum 1.3 × 10^3 CFU/mL", "description": "(§1) The <Table 1> below is based on the official test report of a test that was requested to and performed by the Korea Analytical Testing Research Institute as a test institution. […] In this case, an inhibition rate (%) of the test result is as follows: Inhibition Rate (%)=(Number of Bacteria in Control Group−Number of Bacteria in Sample Group)/Number of Bacteria in Control Group."}, "[2]": {"tested_on": "Salmonella Typhimurium ATCC 14028", "test": "In vitro antibacterial power test (KFDA guidelines for external disinfectants), 5 minutes contact", "type": "cell-based", "conditions": "inoculum 1.1 × 10^3 CFU/mL", "description": "as §1"}, "[3]": {"tested_on": "Staphylococcus aureus ATCC 6538", "test": "In vitro antibacterial power test (KFDA guidelines for external disinfectants), 5 minutes contact", "type": "cell-based", "conditions": "inoculum 1.0 × 10^3 CFU/mL", "description": "as §1"}, "[4]": {"tested_on": "Infectious bronchitis (corona virus)", "test": "Administration test to broiler chicken 2 (farm)", "type": "in vivo, broiler chicken (Ross)", "conditions": "antibiotic administered before the Impact treatment", "experimental": "In the second test, referring to <Table 3> in the below, infectious bronchitis (corona virus) occurred among 24,000 of Ross breeds at the age of 20 days at the broiler chicken consignment farm mentioned above. […] For the test, the product of the present invention was fed at the recommended dosage and was administered in the same way for 3 days."}},
  "data": [
    {"smiles": "CC1(C)S[C@@H]2[C@H](NC(=O)[C@H](N)c3ccccc3)C(=O)N2[C@H]1C(=O)O", "note": "[Ampicillin 100, ampicillin]", "values": [
      {"measurement": "Inhibition rate (%) of number of viable cells after 5 minutes [Antibacterial power]", "setting": "[1]", "result": "(99.9%)"},
      {"measurement": "Inhibition rate (%) of number of viable cells after 5 minutes [Antibacterial power]", "setting": "[2]", "result": "(98.6%)"},
      {"measurement": "number of viable cells after 5 minutes", "setting": "[2]; control group 1.6 × 10^3", "result": "2.1 × 10^1 CFU/mL"},
      {"measurement": "Inhibition rate (%) of number of viable cells after 5 minutes [Antibacterial power]", "setting": "[3]", "result": "(94.6%)"},
      {"measurement": "number of viable cells after 5 minutes", "setting": "[3]; control group 1.5 × 10^3", "result": "8.1 × 10^1 CFU/mL"},
      {"measurement": "respiratory symptoms", "setting": "[4]", "result": "symptoms persisted."}
    ]}
  ]
}
